Molecules are shown by their SMILES.

The record followed here is patent publication US20220017541A1, “INHIBITORS OF ARGINASE” (Black Belt Tx Ltd, priority 2018, published 2022).

The first assay deals with T1, arginase activity in intact BMM-M2 cells (Mus musculus, UniProt Q61176).
T1 construct: endogenous in cells; host or cells: bone-marrow derived macrophages from male C57BL/6 mice, polarised to M2 with IL-4
T1 sequence (Q61176 1-323): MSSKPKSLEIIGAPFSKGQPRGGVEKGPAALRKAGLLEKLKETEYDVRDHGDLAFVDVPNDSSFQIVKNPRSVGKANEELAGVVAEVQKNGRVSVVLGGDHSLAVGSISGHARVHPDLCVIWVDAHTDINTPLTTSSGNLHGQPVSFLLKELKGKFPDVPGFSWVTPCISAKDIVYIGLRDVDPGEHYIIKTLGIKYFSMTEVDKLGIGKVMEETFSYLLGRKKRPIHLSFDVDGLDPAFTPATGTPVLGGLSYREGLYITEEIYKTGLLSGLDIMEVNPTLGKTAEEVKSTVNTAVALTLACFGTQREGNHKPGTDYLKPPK
Put plainly: Cell-based arginase assay: urea production by cultured BMM-M2 cells. The note with it: 10 μM test compound, 24 h. The method, then: Murine bone-marrow derived macrophages (BMM) represent a convenient in vitro model that enables differentiation of these cells towards M1 or M2 macrophages. Briefly, male C57BL/6 mice 7-8 weeks old were euthanized by carbon dioxide asphyxiation. Femur and tibiae bones were removed under aseptic conditions and collected in a plate containing sterile ice-cold PBS 1×. After sterilization of bones in 70% ethanol during 1 min, bones were placed into a clean Petri dish containing fresh sterile ice-cold PBS 1×. The ends of each bone were cut and the marrow cavity was flushed using forceps and syringes filled with pre-warmed complete α-MEM growing medium (α-MEM without red phenol (Life Technologies, Cat. No. #41061-029) supplemented with 10% FBS, penicillin and streptomycin). Bone marrow (BM) cells were harvested in a 15 ml clean tube and centrifuged at 400 g for 8 min at RT. Supernatant was discarded and BM pellet was re-suspended in 5 ml Ammonium-Chloride-Potassium (ACK) buffer for 5 minutes at RT to lysis RBC. BM cell suspension was centrifuged at 400 g for 8 min at RT. Supernatant was discarded and BM cell pellet was re-suspended in complete α-MEM growing medium and passed through a 70 μm cell restrainer to eliminate solid contaminates and cellular aggregates. BM cells were seeded in 8 ml of complete α-MEM growing medium supplemented with 100 ng/ml recombinant mouse M-CSF (R&D Systems, Cat. No. #416-ML-050) in 100-mm dishes. BM cells were cultured overnight to get rid of contaminating stromal cells in a humidified incubator with 5% CO2 at 37° C. At the following day, non-adherent cells were collected in a clean 15-ml tube and centrifuged at 400 g for 8 min at RT. Cell pellet was re-suspended in complete α-MEM growing medium and counted using a hemocytometer Neubauer's chamber. Hematopoietic precursor cells were differentiated into BMM in presence of complete α-MEM growing medium supplemented 50 ng/ml M-CSF for 3 days. Finally to polarize BMM towards M2 phenotype, cells were incubated in presence 20 ng/ml of recombinant mouse IL-4 (R&D Systems, Cat. No. #404-ML-010) added to fresh complete α-MEM growing medium supplemented 50 ng/ml M-CSF for 24 h.
At the day of the experiment, BMM-M2 were treated for 24 h with vehicle (DMSO) or compounds of the invention at 1 and 10 μM prepared in fresh complete α-MEM growing medium supplemented 50 ng/ml M-CSF, 20 ng/ml IL-4 and 10 mM L-arginine (Cat. No. #A5006, Sigma Aldrich). At the next day, 70 μl aliquots of each treated culture media (supernatants) were transferred into a clear 96-well plate. Measurements of urea produced by BMM-M2 were performed using the adapted protocol detailed in Example B1. Wells without BMM-M2 containing only treatment media (vehicle) were used to determine the zero cell-derived urea production (blank). All treatments were carried out in triplicates.
The inhibition of urea production was calculated subtracting the absorbance from the blank to the absorbance from all treatments and it was expressed as the percentage of the absorbance from the reaction containing the test article treatment with respect to the absorbance from vehicle treatment (maximum of urea production).
On to `CC(c1ccccc1)N1CCC(C(N)(CCCCB(O)O)C(=O)O)CC1` (stereo not shown) [Compound 9, 2-amino-6-borono-2-(1-(1-phenylethyl)piperidin-4-yl)hexanoic acid], for which the “Inh. urea production @10 μM (%)” value is recorded as “++ (25% < % inhibition < 15% at 10 μM test compound)”.

Regarding `CC1(C)OB(CCCCC(N)(C(=O)O)C2CCN(C3CCCc4ccccc43)CC2)OC1(C)C` (stereo not shown) [Compound 77, 2-amino-2-(1-(1,2,3,4-tetrahydronaphthalen-1-yl)piperidin-4-yl)-6-(4,4,5,5-tetramethyl-1,3,2-dioxaborolan-2-yl)hexanoic acid], the “Inh. urea production @10 μM (%)” value was “++ (25% < % inhibition < 15% at 10 μM test compound)”.

Staying with this assay, now noted: 10 μM test compound, 24 h, 10 µM.
As for `NC(CCCCB(O)O)(C(=O)O)C1CCN(C2CCc3ccccc32)CC1` (single isomer, unassigned) [Compound 2, 2-amino-6-borono-2-(1-(2,3-dihydro-1H-inden-1-yl)piperidin-4-yl)hexanoic acid], the “Inh. urea production @10 μM (%)” value is “+++ (% inhibition > 25 at 10 μM test compound)”.

As to `NC(CCCCB(O)O)(C(=O)O)C1CCN(C2CCCc3ccccc32)CC1` (single isomer, unassigned) [Compound 6, 2-amino-6-borono-2-(1-(1,2,3,4-tetrahydronaphthalen-1-yl)piperidin-4-yl)hexanoic acid], the “Inh. urea production @10 μM (%)” value is reported as “+ (% inhibition < 15 at 10 μM)”.

`CC(c1ccccc1)N1CCC(C(N)(CCCCB(O)O)C(=O)O)CC1` (single isomer, unassigned) [Compound 11, 2-amino-6-borono-2-(1-(1-phenylethyl)piperidin-4-yl)hexanoic acid]: the “Inh. urea production @10 μM (%)” value is “+ (% inhibition < 15 at 10 μM)”.

Staying with this assay, now noted: 10 μM test compound, 24 h, read-out: Inh. urea production @10 μM (%).
Turning to `NC(CCCCB(O)O)(C(=O)O)C1CCN(C2CCc3ccccc32)CC1` (single isomer, unassigned) [Compound 3, 2-amino-6-borono-2-(1-(2,3-dihydro-1H-inden-1-yl)piperidin-4-yl)hexanoic acid], the inhibition at 10 µM was less than 15%.

Turning to `NC(CCCCB(O)O)(C(=O)O)C1CCN(C2CCCc3ccccc32)CC1` (single isomer, unassigned) [Compound 4, 2-amino-6-borono-2-(1-(1,2,3,4-tetrahydronaphthalen-1-yl)piperidin-4-yl)hexanoic acid], the inhibition at 10 µM was more than 25%.

For the molecule `NC(CCCCB(O)O)(C(=O)O)C1CCN(C2CCCc3ccccc32)CC1` (single isomer, unassigned) [Compound 5, 2-amino-6-borono-2-(1-(1,2,3,4-tetrahydronaphthalen-1-yl)piperidin-4-yl)hexanoic acid], the inhibition at 10 µM is more than 25%.

`CC(c1ccccc1)N1CCC(C(N)(CCCCB(O)O)C(=O)O)CC1` (single isomer, unassigned) [Compound 10, 2-amino-6-borono-2-(1-(1-phenylethyl)piperidin-4-yl)hexanoic acid]: the inhibition at 10 µM was more than 25%.

For `NC(CCCCB(O)O)(C(=O)O)C1CCN(C2CCc3cc(Cl)ccc32)CC1` (single isomer, unassigned) [Compound 14, 2-amino-6-borono-2-[1-(5-chloroindan-1-yl)-4-piperidyl]hexanoic acid], the inhibition at 10 µM was more than 25%.

Regarding `NC(CCCCB(O)O)(C(=O)O)C1CCN(C2CCCc3cc(Cl)ccc32)CC1` (single isomer, unassigned) [Compound 17, 2-amino-6-borono-2-(1-(6-chloro-1,2,3,4-tetrahydronaphthalen-1-yl)piperidin-4-yl)hexanoic acid], the inhibition at 10 µM is more than 25%.

With `CNC(CCCCB(O)O)(C(=O)O)C1CCN(C2CCCc3ccccc32)CC1` (single isomer, unassigned) [Compound 79, 6-borono-2-(methylamino)-2-(1-(1,2,3,4-tetrahydronaphthalen-1-yl)piperidin-4-yl)hexanoic acid], the inhibition at 10 µM is more than 25%.

Take `NC(CCCCB(O)O)(C(=O)O)C1CCN(C2CCCc3ccc(F)cc32)CC1` (single isomer, unassigned) [Compound 83, 2-amino-6-borono-2-(1-(7-fluoro-1,2,3,4-tetrahydronaphthalen-1-yl)piperidin-4-yl)hexanoic acid]: the inhibition at 10 µM is more than 25%.

In the case of `NC(CCCCB(O)O)(C(=O)O)C1CCN(C2CCCCc3ccccc32)CC1` (single isomer, unassigned) [Compound 84, 2-amino-6-borono-2-(1-(6,7,8,9-tetrahydro-5H-benzo[7]annulen-5-yl)piperidin-4-yl)hexanoic acid], the inhibition at 10 µM was more than 25%.

As to `NC(CCCCB(O)O)(C(=O)O)C1CCN(C2CCc3cc(C(F)(F)F)ccc32)CC1` (single isomer, unassigned) [Compound 85, 2-amino-6-borono-2-[1-[5-(trifluoromethyl)indan-1-yl]-4-piperidyl]hexanoic acid], the inhibition at 10 µM is more than 25%.

In the case of `NC(CCCCB(O)O)(C(=O)O)C1CCN(C2CCc3ccccc32)CC1` (stereo not shown) [Compound 1, 2-amino-6-borono-2-(1-(2,3-dihydro-1H-inden-1-yl)piperidin-4-yl)hexanoic acid], the inhibition at 10 µM is more than 25%.
